Data reported in patent US11466025B2, “Thienopyridine derivatives containing unsaturated aliphatic olefinic bond, preparation method and use thereof” (Tianjin Institute of Pharmaceutical Research Co., Ltd., priority 2017, dated 2022).
Like-named read-outs stand apart in the source and are kept apart here.

Key:
[1] = system: platelet aggregation induced by ADP; assay: Test of inhibitory effect of compounds on platelet aggregation in rats (ex vivo, ADP-induced, after intragastric administration); design: species or system SD rats; details: for Inhibition rate (%): platelet aggregation, control = 100%; for Inhibition rate (%) / Aggregation rate (%): rats; for Aggregation rate (%): 2 h after administration, ADP 20 uM
Procedure: Test of Inhibitory Effect of Compounds on Platelet Aggregation in Rats Healthy male SD rats were selected and randomly divided into solvent control group, positive drug control group and test compound group. Intragastric administration was carried out, with the administration volume being 10 ml/kg˜bw. […] The platelet count was adjusted to 5×10^8 cells/ml with PPP.

[2] = Stability of crystalline form A of I-1 (X-ray powder diffraction after high temperature, high humidity, light); assay type: physicochemical
[3] = system: bleeding time of amputated tail in rats; assay: Test of hemorrhagic side effects: bleeding time of amputated tail in rats; assay type: in vivo, SD rats; details: intragastric, tail cut 1 h after administration, linear equation fitted
Procedure: Test of Hemorrhagic Side Effects:
1 h after administration, the rats were anesthetized by intraperitoneal injection of 20% urethane (1 g/kg), and the tail was cut off 5 mm from the tip of the tail, which was then placed in a test tube containing 5 ml normal saline at 37° C. The time from tail cut to cease of bleeding was recorded as the bleeding time. The increasing rate of bleeding time in each dose group was calculated, with the bleeding time of the rats in the control group being 100%.

[4] = 1 μM
Procedure: Plasma samples (double sample) containing 1 μM of the compounds of the present invention, clopidogrel hydrogen sulfate (LBGL), 2-oxo product (2-Oxo) were prepared from human blank plasma, and incubated at 37° C. 50 μL of the above incubated plasma samples were taken at different time points, and 100 μL of precipitant (acetonitrile:methanol=7:3) and 50 μL of internal standard were added. The mixture was vortexed for 1 min and centrifuged for 10 min. 100 μL of the supernatant was taken into an inner inserted tube, centrifuged for 5 min, and injected for LC-MS/MS analysis.
Preparation of blank control sample (PPT-0): 100 μL of frozen human blank plasma was taken, to which 195 μL of acetonitrile and 100 μL of internal standard were added, followed by 5 μL of the compound of the present invention, clopidogrel or 2-oxo product (20 μM). The mixture was vortexed for 1 min and centrifuged for 10 min. 100 μL of the supernatant was taken into an inner inserted tube, centrifuged for 5 min, and injected for LC-MS/MS analysis.

beagle dogs = assay: Safety evaluation in single dosing; assay type: in vivo; details: intragastric single dose of 2 g/kg
Procedure: Safety Evaluation of Compounds I-1 and I-2 in Single Dosing: The test consisted of a physiological control group, a solvent control group, and two administration groups, with 4 animals in each group, half of which were male and the other half of which were female. The animals were intragastrically administered with the test compounds at a single dose of 2 g/kg. The solvent control group was administered with an equal volume of the blank solvent. Animals were daily observed for various conditions during the test. ECG examinations were performed before administration, 1 h after administration, and 7 and 14 days after administration. Hematological and blood biochemical tests were performed before administration and 1, 7 and 12 days after administration.

## C/C=C/C(=O)Oc1cc2c(s1)CCN([C@H](C(=O)OC)c1ccccc1Cl)C2 [Compound I-1, Methyl (S,E)-2-(2-chlorophenyl)-2-(2-(2-butenoyloxy)-6,7-dihydrothieno[3,2-c]pyridin-5(4H)-yl)-acetate]
[1]; Rattus norvegicus, Platelet, po
  ED50: 1 mg/kg
[1]; intragastric 0.5 mg/kg
  Inhibition rate (%): 22.4%
  Aggregation rate (%): 46.6 ± 8.1%
[1]; intragastric 1 mg/kg
  Inhibition rate (%): 50.2%
  Aggregation rate (%): 29.9 ± 8.7 %
[1]; intragastric 2 mg/kg
  Inhibition rate (%): 77.0%
  Aggregation rate (%): 13.8 ± 11.7 %
[2]; crystalline form A of I-1, 0 day
  Crystalline form: Crystalline form A
[2]; crystalline form A of I-1, 5 days, High humidity (RH 92.5%)
  Crystalline form: Crystalline form A
[2]; crystalline form A of I-1, 5 days, High temperature (60° C.)
  Crystalline form: Crystalline form A
[2]; crystalline form A of I-1, 5 days, Light (5000 ± 5000 Lx)
  Crystalline form: Crystalline form A
[2]; crystalline form A of I-1, 10 days, High humidity (RH 92.5%)
  Crystalline form: Crystalline form A
[2]; crystalline form A of I-1, 10 days, High temperature (60° C.)
  Crystalline form: Crystalline form A
[2]; crystalline form A of I-1, 10 days, Light (5000 ± 500 Lx)
  Crystalline form: Crystalline form A
[2]; crystalline form A of I-1, 30 days, High humidity (RH 92.5%)
  Crystalline form: Crystalline form A
[2]; crystalline form A of I-1, 30 days, High temperature (60° C.)
  Crystalline form: Crystalline form A
[2]; crystalline form A of I-1, 30 days, Light (5000 ± 500 Lx)
  Crystalline form: Crystalline form A
[2]; crystalline form A of I-1, high temperature, high humidity and light for 5, 10 and 30 days
  Change of the crystalline form by X-ray powder diffraction: has not changed
[3]
  ED200 (dose that doubled the bleeding time): 1.977 mg/kg
[4]; 0 min
  2-Oxo metabolite concentration in human plasma: 0.0412 µM
  2-Oxo metabolite in human plasma, %: 4.34%
  Concentration of incubated compound in human plasma: 950 nM
  Incubated compound in human plasma, %: 100%
[4]
  Generation of 2-oxo (2-Oxo) product in human plasma: rapidly generate 2-oxo products
[4]; 5 min
  2-Oxo metabolite concentration in human plasma: 0.0807 µM
  2-Oxo metabolite in human plasma, %: 8.49%
  Concentration of incubated compound in human plasma: 872 nM
  Incubated compound in human plasma, %: 91.7%
[4]; 10 min
  2-Oxo metabolite concentration in human plasma: 0.143 µM
  2-Oxo metabolite in human plasma, %: 15.1%
  Concentration of incubated compound in human plasma: 782 nM
  Incubated compound in human plasma, %: 82.3%
[4]; 20 min
  2-Oxo metabolite concentration in human plasma: 0.195 µM
  2-Oxo metabolite in human plasma, %: 20.5%
  Concentration of incubated compound in human plasma: 575 nM
  Incubated compound in human plasma, %: 60.5%
[4]; 30 min
  2-Oxo metabolite concentration in human plasma: 0.198 µM
  2-Oxo metabolite in human plasma, %: 20.8%
  Concentration of incubated compound in human plasma: 425 nM
  Incubated compound in human plasma, %: 44.7%
[4]; 45 min
  2-Oxo metabolite concentration in human plasma: 0.167 µM
  2-Oxo metabolite in human plasma, %: 17.5%
  Concentration of incubated compound in human plasma: 266 nM
  Incubated compound in human plasma, %: 28.0%
[4]; 60 min
  2-Oxo metabolite concentration in human plasma: 0.130 µM
  2-Oxo metabolite in human plasma, %: 13.6%
  Concentration of incubated compound in human plasma: 174 nM
  Incubated compound in human plasma, %: 18.3%
[4]; 90 min
  2-Oxo metabolite concentration in human plasma: 0.0535 µM
  2-Oxo metabolite in human plasma, %: 5.63%
  Concentration of incubated compound in human plasma: 52.2 nM
  Incubated compound in human plasma, %: 5.49%
[4]; 120 min
  2-Oxo metabolite concentration in human plasma: 0.0224 µM
  2-Oxo metabolite in human plasma, %: 2.35%
  Concentration of incubated compound in human plasma: 16.2 nM
  Incubated compound in human plasma, %: 1.70%
[4]; 150 min
  2-Oxo metabolite concentration in human plasma: 0.00857 µM
  2-Oxo metabolite in human plasma, %: 0.902%
  Concentration of incubated compound in human plasma: 5.31 nM
  Incubated compound in human plasma, %: 0.558%
[4]; 180 min
  2-Oxo metabolite concentration in human plasma: 0.00397 µM
  2-Oxo metabolite in human plasma, %: 0.418%
  Concentration of incubated compound in human plasma: 2.19 nM
  Incubated compound in human plasma, %: 0.231%
[4]; 240 min
  2-Oxo metabolite concentration in human plasma: 0 µM
  2-Oxo metabolite in human plasma, %: 0%
  Concentration of incubated compound in human plasma: 0 nM
  Incubated compound in human plasma, %: 0%
[4]; 300 min
  2-Oxo metabolite concentration in human plasma: 0 µM
  2-Oxo metabolite in human plasma, %: 0%
  Concentration of incubated compound in human plasma: 0 nM
  Incubated compound in human plasma, %: 0%
[4]; 360 min
  2-Oxo metabolite concentration in human plasma: 0 µM
  2-Oxo metabolite in human plasma, %: 0%
  Concentration of incubated compound in human plasma: 0 nM
  Incubated compound in human plasma, %: 0%
Beagle dogs
  ECG examinations, hematological tests and serum biochemical tests: no obvious abnormalities
Beagle dogs; administration and observation period
  Activities, mental condition and diet: normal activities, good mental condition, and normal diet
